Data on 80 molecules can be found in PMC12040169 (PLOS Biology, 2025).

For orientation: viability means a read-out of living cells in per cent, often relative to untreated cells.

The data set is described as follows: in vitro. As to conditions: human, hela cells, % viability.
In the case of `CCCCNC(=O)OC1CCN(CCc2ccccc2)CC1` [CBK022839C], the viability at 28.5 h, 10 µM was 89.2%. The figure for `O=C1NC2(CCCCC2)C(=O)N1CCS(=O)(=O)Oc1ccc(Br)cc1` [CBK261303] is 93.5%; for `CCN1CC2(CCC1=O)CCN(Cc1cccc(C(C)N(C)C)c1)CC2` (centres unmarked) [CBK307250] it is 116%; for `COc1ccc(-c2cc3n[nH]c(=O)n3c(C)n2)cc1` [CBK288439] it is 91.1%. The same measure for `Nc1nc(NCCc2ccccc2)nc(-c2cc(Cl)ccc2O)n1` [CBK074551]: 91.8%; for `Cc1ccc(C)c(NC(=O)c2sc3cc(C)ccc3c2Cl)c1` [CBK263648]: 90.3%; for `COCCCN(Cc1cc(F)cc(F)c1)Cc1ccccn1` [CBK282975]: 100%. On to `O=C(O)C1C2C=CC3(CN(C/C=C/c4ccccc4)C(=O)C13)O2` (centres unmarked) [CBK286946], for which the viability at 28.5 h, 10 µM came to 119%. `O=S(=O)(Cc1noc([C@@H]2C[C@@H](O)CN2Cc2ccc(F)cc2)n1)c1ccc(F)cc1` [CBK288831]: the viability at 28.5 h, 10 µM stood at 118%.

With `Cc1cc(Nc2ccc(I)cc2)n2ncnc2n1` [CBK027364], the viability at 28.5 h, 10 µM was found to be 100%.

Turning to `c1ccc2c3c([nH]c2c1)C12CCN(CC1)C(C1CCOC1)N2CC3` (centres unmarked) [CBK284433], the viability at 28.5 h, 10 µM worked out at 88.2%. As to `CCN1CCc2nc(NC(=O)c3ccc(Cl)cc3)sc2C1` [CBK287644], the viability at 28.5 h, 10 µM was found to be 86.3%. The same measure for `CN(C)C(CNc1nccnc1-c1ccc(CO)cc1)c1cccnc1` (centres unmarked) [CBK038038]: 87.6%; for `Cc1ccc(-n2ncc3c2NC(=O)N2CCCN=C32)cc1` [CBK284416]: 110%; for `COCCNc1nc2c(c(N3CCSCC3)n1)CCNCC2` [CBK307510]: 111%. On to `CN1[C@@H](CCC(=O)Nc2ccccc2)CNC(=O)[C@@H]2[C@H]1CCN2C1CCOCC1` [CBK289029], for which the viability at 28.5 h, 10 µM was 108%. The figure for `C=CCOc1ccc(-c2nn(-c3ccccc3)cc2/C=C2/SC(=S)N(CC(=O)O)C2=O)c(C)c1` [CBK265062] is 95.8%; for `COc1ccc(C2Nc3ccccc3C(=O)N2c2ccc(C)cc2)cc1Cn1nc(C)c([N+](=O)[O-])c1C` (centres unmarked) [CBK263703] it is 106%; for `CC(C)(C)NC(=O)Cn1cncc1-c1cnn(C2CCCCC2)c1` [CBK281701] it is 93.5%. The same measure for `Cc1cc(C)cc(Oc2coc3c(CN4CCOCC4)c(O)ccc3c2=O)c1` [CBK263908]: 89.7%; for `O=C1NC(=Nc2ccccn2)SC1Cc1ccc(Br)cc1` (centres unmarked) [CBK263109]: 82.3%. Take `CCN(Cc1ccncc1)S(=O)(=O)c1ccc(Cl)c(Cl)c1` [CBK043818]: the viability at 28.5 h, 10 µM was 96.2%. As for `O=C(NCCCn1ccnn1)c1cccc(S(=O)(=O)N2CCCCC2)c1` [CBK304660], the viability at 28.5 h, 10 µM worked out at 104%. In the case of `O=C(NCc1ccc2c(c1)OCO2)C1CN(S(=O)(=O)c2ccccc2)CCN1S(=O)(=O)c1ccccc1` (centres unmarked) [CBK267059], the viability at 28.5 h, 10 µM was determined as 102%. For the molecule `CCn1nc(C)c(-c2cncn2CCCC(C)(C)CO)c1C` [CBK281807], the viability at 28.5 h, 10 µM was 84.4%.

For `COc1ccc(Cc2nc(C(C)(C)C)cs2)cc1` [CBK021497B], the viability at 28.5 h, 10 µM is 85%. As to `O=CN1CCc2c([nH]c3ccc(F)cc23)C12CCN(Cc1cccc(Oc3ccc(F)cc3)c1)CC2` [CBK040388], the viability at 28.5 h, 10 µM is 96.4%.

`OC1CC(c2cc(F)ccc2F)N(CCc2ccncc2)C1` (centres unmarked) [CBK305106]: the viability at 28.5 h, 10 µM was determined as 87.2%. Consider `CCOC(=O)Cn1c(C)nc2ccccc21` [CBK115311], for which the viability at 28.5 h, 10 µM is 103%. `COc1ccc(OCCNC(=O)c2cc(Br)cnc2N(C)C(C)=O)cc1` [CBK076467]: the viability at 28.5 h, 10 µM was 104%. Consider `O=C(Nc1nonc1-c1nc2ccccc2n1CCOC(=O)c1ccc(F)cc1)c1ccc(F)cc1` [CBK062653], for which the viability at 28.5 h, 10 µM was 102%. For `N#Cc1ccc(N)c2ccccc12` [CBK015754], the viability at 28.5 h, 10 µM was 90.6%. `CC(=O)Nc1ccc(Nc2ncnc3c2cnn3-c2ccc(C)cc2C)cc1` [CBK265803]: the viability at 28.5 h, 10 µM worked out at 116%. The same measure for `O[C@@H]1C[C@@H](c2nc(-c3ccc4c(c3)OCO4)no2)N(Cc2cc3ccccc3o2)C1` [CBK288868]: 83.9%. On to `COc1ccc([N+](=O)[O-])c(Sc2cccs2)n1` [CBK002625], for which the viability at 28.5 h, 10 µM came out at 84.9%. Take `COCCN(Cc1nccs1)C(=O)C1CCc2nn(C)c(=O)n2C1` (centres unmarked) [CBK306506]: the viability at 28.5 h, 10 µM worked out at 103%. Consider `Cc1[nH]c(=O)[nH]c(=S)c1C(=O)Nc1ccc(Cl)cc1C#N` [CBK115502], for which the viability at 28.5 h, 10 µM was 91%. `COc1cc(Cn2c(=O)[nH]c3ncc(-c4ccco4)nc32)cc(OC)c1OC` [CBK064461]: the viability at 28.5 h, 10 µM was 106%. Consider `CCc1ccc(C2=CC(c3cccc(C)c3)n3nnnc3N2)cc1` (centres unmarked) [CBK268095], for which the viability at 28.5 h, 10 µM was found to be 88.6%. For `CC(=O)N(C)c1ncc(Br)cc1C(=O)NCC1COc2ccccc2O1` (centres unmarked) [CBK076558], the viability at 28.5 h, 10 µM stood at 91.7%. With `O=C(CSc1nnnn1CC1CCCO1)N1CC=C(c2ccccc2)CC1` (centres unmarked) [CBK295160], the viability at 28.5 h, 10 µM is 82%. Turning to `Cc1ccc(CN(CCCN(C)C)Cc2nccn2C)o1` [CBK282481], the viability at 28.5 h, 10 µM was 105%.

Regarding `COc1ccc([C@@]23CC[C@@H](NC(=O)c4cccc(Cl)c4)C[C@@H]2N(C)CC3)cc1OC` [CBK073982T], the viability at 28.5 h, 10 µM is 93.5%.

Regarding `O=C(O)CCCn1cc(NC(=O)c2c(F)cccc2F)cn1` [CBK269941], the viability at 28.5 h, 10 µM turned out to be 86.6%.

Regarding `O=C(C1CCC1)N1CCN(c2ccccn2)CC1` [CBK026058], the viability at 28.5 h, 10 µM was 107%. The same measure for `Cc1ccn(-c2ccc(N3CCC(OC4CCCC4)CC3)nn2)n1` [CBK306301]: 96%; for `O=C(CSc1nc(-c2ccc(F)cc2)cc(C(F)(F)F)n1)NCCN1CCOCC1` [CBK266121]: 99.6%; for `Cc1ccc(NC(=O)CC(C(=O)O)N(C)C)cc1` (centres unmarked) [CBK267068]: 81.7%.

With `COc1ccc(CNc2cccc(C(=O)O)c2C)cc1OC` [CBK269634], the viability at 28.5 h, 10 µM stood at 109%.

Regarding `CN1CCCCC/C1=N/C(=S)CN1CCCC1=S` [CBK009052], the viability at 28.5 h, 10 µM was 96.3%. Consider `Cc1ncsc1C(=O)N1CCC(c2cccc(Cc3ccccc3Cl)n2)CC1` [CBK286146], for which the viability at 28.5 h, 10 µM came to 99.2%. The figure for `CCc1ccc(Nc2nc(N)nc(CN3CCN(c4ccccn4)CC3)n2)cc1` [CBK270064] is 102%; for `O=C(O)c1cc(NS(=O)(=O)c2ccc([N+](=O)[O-])cc2)ccc1O` [CBK296077] it is 110%. Take `Cc1cc(C[C@@H]2COC[C@H]2NCc2cccs2)on1` [CBK282999]: the viability at 28.5 h, 10 µM came out at 95.8%. With `Cn1c(SCC(=O)c2ccccc2)nc2ccccc2c1=O` [CBK055260], the viability at 28.5 h, 10 µM amounted to 87.6%. The figure for `O=C1Nc2ccccc2SC1(O)C(F)(F)F` (centres unmarked) [CBK025554] is 114%. The figure for `c1cn2cc(-c3ccc(N4CCOCC4)cc3)nc(NCC3CCOCC3)c2n1` [CBK037308] is 96.3%.

Take `COc1nc(NCCN2CCOCC2)nc(Nc2ccccc2)n1` [CBK027298]: the viability at 28.5 h, 10 µM amounted to 102%. As to `Cc1nnnn1-c1cc(NC(=O)NCCCc2nc[nH]n2)ccc1F` [CBK304102], the viability at 28.5 h, 10 µM is 87.7%. For `CC(Cn1cc(Cl)cn1)C(=O)NC(C)C1CC2CCC1C2` (centres unmarked) [CBK281650], the viability at 28.5 h, 10 µM came out at 110%.

With `O=C(c1cccnc1)N1CCN(Cc2ccc([N+](=O)[O-])cc2)CC1` [CBK263026], the viability at 28.5 h, 10 µM stood at 93.4%. The same measure for `CS(=O)(=O)c1ccc(-c2ccc(N)c3ccccc23)cc1` [CBK084326]: 95.4%; for `Cc1ccccc1CNC(=O)CCSc1ccc(Cl)cc1` [CBK264040]: 102%; for `O=C(O)CNS(=O)(=O)c1cc(Cl)sc1Cl` [CBK034452]: 91.4%. Turning to `CC1CCc2nn(CCNC(=O)Cc3cccs3)c(=O)cc2C1` (centres unmarked) [CBK284465], the viability at 28.5 h, 10 µM is 88.8%. `Cc1cnc2c(Cl)c(C(=O)N3CCC4(CCCNC4)C3)nn2c1` (centres unmarked) [CBK307472]: the viability at 28.5 h, 10 µM was determined as 116%. On to `CCCC(=O)NC1CCN(C(=O)c2snnc2CC)CC1` [CBK297744], for which the viability at 28.5 h, 10 µM was 97.3%. With `O=C(CC1CCCC1)N1CCC(c2cc(CCOc3cccc(C(F)(F)F)c3)[nH]n2)C1` (centres unmarked) [CBK286267], the viability at 28.5 h, 10 µM is 89.4%. The figure for `Nc1ccc(-c2nnn(CC(=O)NC3CCCCC3)n2)cc1` [CBK135771] is 86.7%. With `CCOc1cc(OCC)cc(C(=O)N2CCC3(CC2)CC(=O)c2cc(OCCN(C)C)ccc2O3)c1` [CBK169003T], the viability at 28.5 h, 10 µM stood at 89.3%. Turning to `CS(=O)(=O)c1ccc(-c2cnc3[nH]c(=O)n(-c4ccc5[nH]ccc5c4)c3n2)cc1` [CBK064691], the viability at 28.5 h, 10 µM stood at 96.6%. For the molecule `Cc1ccc(S(=O)(=O)NCCC(=O)NO)cc1` [CBK023472], the viability at 28.5 h, 10 µM turned out to be 110%. Regarding `CC(C)(C)C1=CC2=NC3(CCC3)C3C[C@](O)(Cc4ccccc4)[C@@H](O)[C@@H]3N2O1` (some centres unmarked) [CBK303261], the viability at 28.5 h, 10 µM worked out at 95.7%. Consider `Cc1csc(Nc2cccc(C3CCCN3C(=O)CCOc3ccccc3C)n2)n1` (centres unmarked) [CBK285977], for which the viability at 28.5 h, 10 µM worked out at 101%. Take `CCn1ncc(CN2CCC(O)(c3ccc(C)cc3)CC2)c1C` [CBK282956]: the viability at 28.5 h, 10 µM is 90.2%. Regarding `CN1CCN(Cc2nc3c(c(=O)n(C)c(=O)n3C)n2Cc2c(F)cccc2Cl)CC1` [CBK269179], the viability at 28.5 h, 10 µM stood at 98.3%. The figure for `O=C(C1CCCC1)N1CCC(c2nnc3n2CCCCC3)CC1` [CBK284612] is 103%; for `O=C(C1CC(O)CN1)N1CC2(CCCC2)c2c(F)cccc21` (centres unmarked) [CBK304269C] it is 99%; for `COc1ccc(CN2CCC3(CCc4ccccc4C(=O)N3)C2)cc1` (centres unmarked) [CBK283339] it is 97.6%. On to `O=C(NC(c1ccc2c(c1)CCO2)[C@H]1C[C@@H](O)C1)c1c[nH]c(=O)c(Cl)c1` (some centres unmarked) [CBK306634], for which the viability at 28.5 h, 10 µM came out at 95%.
